Results on 28 molecules are retold here after patent US10758534B2 (Vertex Pharmaceuticals Incorporated, priority 2014, dated 2020).

The target in this experiment is T1, F508del (Homo sapiens, UniProt P13569, DEL508-508).
T1 construct: expressed in transfected cells
T1 sequence (P13569 with tags, fused parts or gaps DEL508-508): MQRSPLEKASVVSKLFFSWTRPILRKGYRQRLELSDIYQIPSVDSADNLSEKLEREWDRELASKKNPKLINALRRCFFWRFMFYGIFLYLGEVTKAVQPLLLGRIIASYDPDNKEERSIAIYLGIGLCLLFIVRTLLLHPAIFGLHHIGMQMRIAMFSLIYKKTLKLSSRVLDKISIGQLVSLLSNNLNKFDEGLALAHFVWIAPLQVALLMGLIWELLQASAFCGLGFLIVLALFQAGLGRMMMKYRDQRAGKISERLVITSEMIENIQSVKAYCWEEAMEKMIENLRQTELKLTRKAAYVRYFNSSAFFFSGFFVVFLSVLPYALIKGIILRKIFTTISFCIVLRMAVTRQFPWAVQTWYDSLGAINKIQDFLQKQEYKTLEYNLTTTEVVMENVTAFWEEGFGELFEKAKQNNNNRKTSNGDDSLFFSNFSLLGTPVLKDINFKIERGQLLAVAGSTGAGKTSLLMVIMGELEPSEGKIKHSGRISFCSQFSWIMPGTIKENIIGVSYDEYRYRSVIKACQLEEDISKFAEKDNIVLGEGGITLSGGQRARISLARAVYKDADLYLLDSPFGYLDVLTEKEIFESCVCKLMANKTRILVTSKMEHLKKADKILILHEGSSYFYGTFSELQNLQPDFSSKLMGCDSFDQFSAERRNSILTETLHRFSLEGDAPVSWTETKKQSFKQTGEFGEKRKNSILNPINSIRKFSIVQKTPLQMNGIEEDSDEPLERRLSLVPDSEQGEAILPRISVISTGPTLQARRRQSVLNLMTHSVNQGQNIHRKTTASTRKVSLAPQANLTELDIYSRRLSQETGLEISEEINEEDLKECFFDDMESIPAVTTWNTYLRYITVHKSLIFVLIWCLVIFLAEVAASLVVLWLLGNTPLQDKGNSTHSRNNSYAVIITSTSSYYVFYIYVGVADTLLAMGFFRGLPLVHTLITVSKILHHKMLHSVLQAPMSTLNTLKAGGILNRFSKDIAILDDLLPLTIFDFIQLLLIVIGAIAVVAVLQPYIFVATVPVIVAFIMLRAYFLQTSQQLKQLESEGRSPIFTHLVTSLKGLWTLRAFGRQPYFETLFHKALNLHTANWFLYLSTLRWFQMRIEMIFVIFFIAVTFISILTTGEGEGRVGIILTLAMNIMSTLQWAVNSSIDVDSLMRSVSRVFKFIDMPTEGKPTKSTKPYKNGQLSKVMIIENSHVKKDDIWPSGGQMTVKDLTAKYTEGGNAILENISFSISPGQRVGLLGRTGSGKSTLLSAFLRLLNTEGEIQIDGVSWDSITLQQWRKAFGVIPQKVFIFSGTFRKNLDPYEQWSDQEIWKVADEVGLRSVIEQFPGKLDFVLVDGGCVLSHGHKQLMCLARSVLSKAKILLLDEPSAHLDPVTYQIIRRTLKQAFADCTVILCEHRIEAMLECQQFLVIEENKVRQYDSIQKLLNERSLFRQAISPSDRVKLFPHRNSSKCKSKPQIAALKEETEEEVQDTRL
The experiment is described as follows: Protocol 1: membrane potential optical assay (FLIPR III, voltage sensing dye), identification of potentiator compounds. The note with it: Table 3, compounds of Table 1. It is filed as cell-based. In short, it runs like this:
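Read-out: change in voltage-sensing dye fluorescence (FLIPR III) as a measure of F508del conductance. Temperature-corrected (27° C, 24 hrs) NIH 3T3 cells expressing F508del are pretreated with potentiators, dye-loaded, then stimulated with forskolin under a chloride ion gradient using chloride-free gluconate bath.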
As for `COc1ccc(COc2cccc(S(=O)(=O)NC(=O)c3cccnc3N3CC(C)CC3(C)C)n2)cc1Cl` (stereo not shown) [Compound 1778, N—[[6-[(3-chloro-4-methoxy-phenyl)methoxy]-2-pyridyl]sulfonyl]-2-(2,2,4-trimethylpyrrolidin-1-yl)pyridine-3-carboxamide], the EC30 entry is recorded as “+++ (“+++” means <3 uM)”.
In the case of `Cc1cc(C)c(Oc2nc(-c3cnn(CC(C)C)c3)ccc2C(=O)NS(=O)(=O)c2cccc(N)n2)c(C)c1` [Compound 1177, N-[(6-amino-2-pyridyl)sulfonyl]-6-(1-isobutylpyrazol-4-yl)-2-(2,4,6-trimethylphenoxy)pyridine-3-carboxamide] it was “++ (“++” means between 3 uM and 10 uM)”.
Under `CC(C)COc1cc(F)cc(-c2ccc(C(=O)NS(=O)(=O)c3cccc(N)n3)c(N3CCCC34CCC4)n2)c1` [Compound 845, N-[(6-amino-2-pyridyl)sulfonyl]-2-(8-azaspiro[3.4]octan-8-yl)-6-(3-fluoro-5-isobutoxy-phenyl)pyridine-3-carboxamide] stands “+++ (“+++” means <3 uM)”; under `COc1ccc(-c2ccc(C(=O)NS(=O)(=O)c3cccc(N)n3)c(Oc3c(C)cc(C)cc3C)n2)c(OC)c1` [Compound 950, N-[(6-amino-2-pyridyl)sulfonyl]-6-(2,4-dimethoxyphenyl)-2-(2,4,6-trimethylphenoxy)pyridine-3-carboxamide], “+++ (“+++” means <3 uM)”.
Under `CC(C)COc1cc(F)cc(-c2ccc(C(=O)NS(=O)(=O)c3cccc(N)n3)c(OCCCCc3cccnc3)n2)c1` [Compound 1690, N-[(6-amino-2-pyridyl)sulfonyl]-6-(3-fluoro-5-isobutoxy-phenyl)-2-[4-(3-pyridyl)butoxy]pyridine-3-carboxamide] stands “+++ (“+++” means <3 uM)”.
Turning to `Cc1cc(C)c(Oc2nc(N3[C@H](C)CC[C@@H]3C)ccc2C(=O)NS(=O)(=O)c2cccc(N)n2)c(C)c1` [Compound 1494, N-[(6-amino-2-pyridyl)sulfonyl]-6-[(2R,5S)-2,5-dimethylpyrrolidin-1-yl]-2-(2,4,6-trimethylphenoxy)pyridine-3-carboxamide], the EC30 entry was “+++ (“+++” means <3 uM)”.
Take `CCOc1nc(-c2ccc(C(=O)NS(=O)(=O)c3cccc(N)n3)c(N3CC(C)CC3(C)C)n2)ccc1C` (stereo not shown) [Compound 1363, N-[(6-amino-2-pyridyl)sulfonyl]-6-(6-ethoxy-5-methyl-2-pyridyl)-2-(2,2,4-trimethylpyrrolidin-1-yl)pyridine-3-carboxamide]: the EC30 entry was “+++ (“+++” means <3 uM)”.
In the case of `Cc1cc(C)c(Oc2nc(-c3cnn(CCC(C)C)c3)ccc2C(=O)NS(=O)(=O)c2cccc(N)n2)c(C)c1` [Compound 1336, N-[(6-amino-2-pyridyl)sulfonyl]-6-(1-isopentylpyrazol-4-yl)-2-(2,4,6-trimethylphenoxy)pyridine-3-carboxamide] it was “+++ (“+++” means <3 uM)”; in that of `Cc1cc(C)c(Oc2nc(-c3ccc4ccn(C)c4c3)ccc2C(=O)NS(=O)(=O)c2ccc[nH]c2=O)c(C)c1` [Compound 936, 6-(1-methylindol-6-yl)-N-[(2-oxo-1H-pyridin-3-yl)sulfonyl]-2-(2,4,6-trimethylphenoxy)pyridine-3-carboxamide], “++ (“++” means between 3 uM and 10 uM)”; in that of `COc1nccc(-c2ccc(C(=O)NS(=O)(=O)c3cccc(N)n3)c(Oc3c(C)cc(C)cc3C)n2)c1Cl` [Compound 1284, N-[(6-amino-2-pyridyl)sulfonyl]-6-(3-chloro-2-methoxy-4-pyridyl)-2-(2,4,6-trimethylphenoxy)pyridine-3-carboxamide], “+++ (“+++” means <3 uM)”.
In the case of `CC(C)COc1cc(-c2ccc(C(=O)NS(=O)(=O)c3cccc(N)n3)c(N3CCC(C)CC3)n2)ccc1Cl` [Compound 1266, N-[(6-amino-2-pyridyl)sulfonyl]-6-(4-chloro-3-isobutoxy-phenyl)-2-(4-methyl-1-piperidyl)pyridine-3-carboxamide] it was “+++ (“+++” means <3 uM)”; in that of `COc1ccc(OC)c(-c2ccc(C(=O)NS(=O)(=O)c3ccc[nH]c3=O)c(Oc3c(C)cc(C)cc3C)n2)c1` [Compound 888, 6-(2,5-dimethoxyphenyl)-N-[(2-oxo-1H-pyridin-3-yl)sulfonyl]-2-(2,4,6-trimethylphenoxy)pyridine-3-carboxamide], “++ (“++” means between 3 uM and 10 uM)”; in that of `COc1cccc(CN(C)c2cccc(S(=O)(=O)NC(=O)c3cccnc3N3CC(C)CC3(C)C)n2)c1` (stereo not shown) [Compound 1940, N—[[6-[(3-methoxyphenyl)methyl-methyl-amino]-2-pyridyl]sulfonyl]-2-(2,2,4-trimethylpyrrolidin-1-yl)pyridine-3-carboxamide], “+++ (“+++” means <3 uM)”.
Under `CC(C)COc1cc(F)cc(-c2ccc(C(=O)NS(=O)(=O)c3cccc(N)n3)c(N(C)CC3CC3)n2)c1` [Compound 1010, N-[(6-amino-2-pyridyl)sulfonyl]-2-[cyclopropylmethyl(methyl)amino]-6-(3-fluoro-5-isobutoxy-phenyl)pyridine-3-carboxamide] stands “+++ (“+++” means <3 uM)”; under `CC1CN(c2ncccc2C(=O)NS(=O)(=O)c2cccc(OCC3CCCCO3)n2)C(C)(C)C1` (stereo not shown) [Compound 1939, N—[[6-(tetrahydropyran-2-ylmethoxy)-2-pyridyl]sulfonyl]-2-(2,2,4-trimethylpyrrolidin-1-yl)pyridine-3-carboxamide], “++ (“++” means between 3 uM and 10 uM)”.
On to `CCOc1cccc2c1CN(Cc1ccc(C(C)C)cc1)C2(C)C(=O)NS(=O)(=O)c1cccc(F)n1` (stereo not shown) [Compound 1655, 4-ethoxy-N-[(6-fluoro-2-pyridyl)sulfonyl]-2-[(4-isopropylphenyl)methyl]-1-methyl-isoindoline-1-carboxamide], for which the EC30 entry is reported as “+++ (“+++” means <3 uM)”.
Under `CCC1(CC)CCCN(c2nc(-c3ccc(OC(C)C)nc3)ccc2C(=O)NS(=O)(=O)c2cccc(N)n2)C1` [Compound 971, N-[(6-amino-2-pyridyl)sulfonyl]-2-(3,3-diethyl-1-piperidyl)-6-(6-isopropoxy-3-pyridyl)pyridine-3-carboxamide] stands “+++ (“+++” means <3 uM)”.
In the case of `CC(C)Oc1ccc(-c2ccc(C(=O)NS(=O)(=O)c3cccc(N)n3)c(N3CCC4(CC3)OCc3ccccc34)n2)cn1` [Compound 818, N-[(6-amino-2-pyridyl)sulfonyl]-6-(6-isopropoxy-3-pyridyl)-2-spiro[1H-isobenzofuran-3,4′-piperidine]-1′-yl-pyridine-3-carboxamide] it was “+++ (“+++” means <3 uM)”; in that of `C=C1CCN(c2nc(-c3cc(F)cc(OCC(C)C)c3)ccc2C(=O)NS(=O)(=O)c2cccc(N)n2)CC1` [Compound 1162, N-[(6-amino-2-pyridyl)sulfonyl]-6-(3-fluoro-5-isobutoxy-phenyl)-2-(4-methylene-1-piperidyl)pyridine-3-carboxamide], “+++ (“+++” means <3 uM)”.
In the case of `CC(C)COc1ccc(-c2ccc(C(=O)NS(=O)(=O)c3ccn[nH]3)c(N3[C@H](C)CC[C@@H]3C)n2)cc1` [Compound 1335, 2-[(2S,5R)-2,5-dimethylpyrrolidin-1-yl]-6-(4-isobutoxyphenyl)-N-(1H-pyrazol-5-ylsulfonyl)pyridine-3-carboxamide] it was “+++ (“+++” means <3 uM)”; in that of `CC(C)c1ccc(C(=O)NS(=O)(=O)c2cccc(N)n2)c(N2C[C@@H](C)CC2(C)C)n1` [Compound 1505, N-[(6-amino-2-pyridyl)sulfonyl]-6-isopropyl-2-[(4S)-2,2,4-trimethylpyrrolidin-1-yl]pyridine-3-carboxamide], “+++ (“+++” means <3 uM)”.
In the case of `Cc1cc(C)c(Oc2nc(-c3cnn(CC(C)C)c3)ccc2C(=O)NS(=O)(=O)c2nccnc2N)c(C)c1` [Compound 1103, N-(3-aminopyrazin-2-yl)sulfonyl-6-(1-isobutylpyrazol-4-yl)-2-(2,4,6-trimethylphenoxy)pyridine-3-carboxamide], the EC30 entry was “+++ (“+++” means <3 uM)”.
Under `Cc1ccc(-c2nc(C(C)(C)C)ccc2C(=O)NS(=O)(=O)c2ccc(C)cn2)cc1` [Compound 1355, 6-tert-butyl-N-[(5-methyl-2-pyridyl)sulfonyl]-2-(p-tolyl)pyridine-3-carboxamide] stands “++ (“++” means between 3 uM and 10 uM)”; under `Cc1cc(C)c(Oc2nc(C3CCCCC3)ccc2C(=O)NS(=O)(=O)c2ccc[nH]c2=O)c(C)c1` [Compound 1357, 6-cyclohexyl-N-[(2-oxo-1H-pyridin-3-yl)sulfonyl]-2-(2,4,6-trimethylphenoxy)pyridine-3-carboxamide], “+++ (“+++” means <3 uM)”; under `CC(C)COc1cc(F)cc(-c2ccc(C(=O)NS(=O)(=O)c3cccc(N)n3)c(OCC3CCCO3)n2)c1` (stereo not shown) [Compound 1661, N-[(6-amino-2-pyridyl)sulfonyl]-6-(3-fluoro-5-isobutoxy-phenyl)-2-(tetrahydrofuran-2-ylmethoxy)pyridine-3-carboxamide], “+++ (“+++” means <3 uM)”.
In the case of `CC1CN(c2nc(C(C)(C)C)c(C3=COCCC3)cc2C(=O)NS(=O)(=O)c2cccc(N)n2)C(C)(C)C1` (stereo not shown) [Compound 1487, N-[(6-amino-2-pyridyl)sulfonyl]-6-tert-butyl-5-(3,4-dihydro-2H-pyran-5-yl)-2-(2,2,4-trimethylpyrrolidin-1-yl)pyridine-3-carboxamide] it was “+++ (“+++” means <3 uM)”; in that of `CC(C)Oc1cc(F)cc(-c2ccc(C(=O)NS(=O)(=O)c3cccc(N)n3)c(N3[C@H](C)CC[C@@H]3C)n2)c1` [Compound 1123, N-[(6-amino-2-pyridyl)sulfonyl]-2-[(2S,5R)-2,5-dimethylpyrrolidin-1-yl]-6-(3-fluoro-5-isopropoxy-phenyl)pyridine-3-carboxamide], “+++ (“+++” means <3 uM)”.
In the case of `CC1CN(c2ncccc2C(=O)NS(=O)(=O)c2cccc(Oc3ccc(Cl)cc3Cl)n2)C(C)(C)C1` (stereo not shown) [Compound 1806, N—[[6-(2,4-dichlorophenoxy)-2-pyridyl]sulfnyl]-2-(2,2,4-trimethylpyrrolidin-1-yl)pyridine-3-carboxamide] it was “+++ (“+++” means <3 uM)”.
